Source: patent US20090233796A1, “HERBICIDAL COMPOSITION” (SYNGENTA CROP PROTECTION, INC., priority 2004, published 2009)

Experiments:
Type in all cases: in vivo
[…] = Compound (A) with nicosulfuron, weed plots; conditions: 58 DAA, No. 3.12
Experimental: (§1) In these tests, various weeds were treated with nicosulfuron alone at a rate equivalent to 35 g per hectare, […] and Compound (A) at rates equivalent to the sum of these. The compositions were formulated as an emulsifyable concentrate (EC).
(§2) The results in the table under each application are the percentage of the plants that were killed.

SETARIA SP. = assay: Compound (A) with nicosulfuron, weed plots; conditions: 21 DAA, No. 3.4
Experimental: as §1, §2

C[…]. = assay: Compound (A) with nicosulfuron, weed plots; conditions: 5 DAA, No. 3.8
Experimental: as §1, §2

SETARIA VIRIDIS = assay: Compound (A) with nicosulfuron, weed plots; conditions: 4 DAA, No. 3.11
Experimental: as §1, §2

ABUTILON THEOPHRASTI = assay: Compound (A) with nicosulfuron, weed plots; conditions: 27 DAA, No. 3.13
Experimental: as §1, §2

IPOMOEA SP. [1] = assay: Compound (A) with nicosulfuron, weed plots; conditions: 5 DAA, No. 3.10
Experimental: as §1, §2

AMBROSIA TRIFIDA [2] = assay: Compound (A) with nicosulfuron, weed plots; conditions: 28 DAA, No. 3.15
Experimental: as §1, §2

SESBANIA EXALTATA [3] = assay: Compound (A) with nicosulfuron, weed plots
Experimental: as §1, §2

BRACHIARIA PLATYPHYLLA = assay: Compound (A) with nicosulfuron, weed plots
Experimental: as §1, §2

DIGITARIA SANGUINALIS [4] = assay: Compound (A) with nicosulfuron, weed plots
Experimental: as §1, §2

CYNODON DACTYLON = assay: Compound (A) with glyphosate, weed plots; conditions: 82 DAA, No. 2.1
Source text: (§3) The compositions were formulated as an emulsifyable concentrate (EC).
as §2

CYPERUS ROTUNDUS = assay: Compound (A) with glyphosate, weed plots; conditions: 2 DAA, No. 2.5
Source text: as §3, §2

DIGITARIA SANGUINALIS [5] = assay: Compound (A) with glyphosate, weed plots; conditions: 52 DAA, No. 2.2
Source text: as §3, §2

AMBROSIA ARTEMISIIFOLIA = assay: Compound (A) with S-metolachlor, weed plots
Experimental: (§4) In these tests, various weeds were treated with S-metolachlor (SMOC) alone at an application rate equivalent to 1420 g per hectare, Compound (A) alone at rates equivalent to 20 g per hectare and […] and with mixtures of S-metolachlor and the Compound (A) at rates equivalent to the sum of these. The compositions were formulated as an emulsifyable concentrate (EC).
as §2

IPOMOEA SP. [6] = assay: Compound (A) with S-metolachlor, weed plots
Experimental: as §4, §2

E[…]-GALLI = assay: Compound (A) with S-metolachlor, weed plots; conditions: 28 DAA, Trial 4.1
Experimental: as §4, §2

AMBROSIA TRIFIDA [7] = assay: Compound (A) with S-metolachlor, weed plots
Experimental: as §4, §2

C[…] = assay: Compound (A) with S-metolachlor, weed plots
Experimental: as §4, §2

XANTHIUM STRUMARIUM = assay: Compound (A) with S-metolachlor, weed plots
Experimental: as §4, §2

SESBANIA EXALTATA [8] = assay: Compound (A) with S-metolachlor, weed plots; conditions: 56 DAA, Trial 4.2
Experimental: as §4, §2

POLYGONUM PENSYLVANICUM = assay: Compound (A) with S-metolachlor, weed plots; conditions: 56 DAA, Trial 4.14
Experimental: as §4, §2

CCOC(=O)COc1ncccc1Oc1cc(-n2c(=O)cc(C(F)(F)F)n(C)c2=O)c(F)cc1Cl [Compound (A)]
percentage of the plants that were killed ([…]; 5 g/ha): 50%
percentage of the plants that were killed ([…]; 10 g/ha): 70%
percentage of the plants that were killed ([…]; 20 g/ha): 97%
percentage of the plants that were killed (SETARIA SP.; 5 g/ha): 50%
percentage of the plants that were killed (SETARIA SP.; 10 g/ha): 80%
percentage of the plants that were killed (SETARIA SP.; 20 g/ha): 93%
percentage of the plants that were killed (C[…].; 5 g/ha): 20%
percentage of the plants that were killed (C[…].; 10 g/ha): 30%
percentage of the plants that were killed (C[…].; 20 g/ha): 95%
percentage of the plants that were killed (SETARIA VIRIDIS; 5 g/ha): 40%
percentage of the plants that were killed (SETARIA VIRIDIS; 10 g/ha): 70%
percentage of the plants that were killed (SETARIA VIRIDIS; 20 g/ha): 85%
percentage of the plants that were killed (ABUTILON THEOPHRASTI; 5 g/ha): 0%
percentage of the plants that were killed (ABUTILON THEOPHRASTI; 10 g/ha): 98%
percentage of the plants that were killed (ABUTILON THEOPHRASTI; 20 g/ha): 99%
percentage of the plants that were killed (IPOMOEA SP. [1]; 5 g/ha): 30%
percentage of the plants that were killed (IPOMOEA SP. [1]; 10 g/ha): 80%
percentage of the plants that were killed (IPOMOEA SP. [1]; 20 g/ha): 95%
percentage of the plants that were killed (AMBROSIA TRIFIDA [2]; 5 g/ha): 50%
percentage of the plants that were killed (AMBROSIA TRIFIDA [2]; 10 g/ha): 50%
percentage of the plants that were killed (AMBROSIA TRIFIDA [2]; 20 g/ha): 60%
percentage of the plants that were killed (SESBANIA EXALTATA [3]; 5 g/ha, 44 DAA, No. 3.3): 75%
percentage of the plants that were killed (SESBANIA EXALTATA [3]; 5 g/ha, 45 DAA, No. 3.2): 65%
percentage of the plants that were killed (SESBANIA EXALTATA [3]; 10 g/ha, 44 DAA, No. 3.3): 85%
percentage of the plants that were killed (SESBANIA EXALTATA [3]; 10 g/ha, 45 DAA, No. 3.2): 85%
percentage of the plants that were killed (SESBANIA EXALTATA [3]; 20 g/ha, 44 DAA, No. 3.3): 90%
percentage of the plants that were killed (SESBANIA EXALTATA [3]; 20 g/ha, 45 DAA, No. 3.2): 90%
percentage of the plants that were killed (BRACHIARIA PLATYPHYLLA; 5 g/ha, 24 DAA, No. 3.16): 0%
percentage of the plants that were killed (BRACHIARIA PLATYPHYLLA; 5 g/ha, 30 DAA, No. 3.17): 0%
percentage of the plants that were killed (BRACHIARIA PLATYPHYLLA; 10 g/ha, 24 DAA, No. 3.16): 0%
percentage of the plants that were killed (BRACHIARIA PLATYPHYLLA; 10 g/ha, 30 DAA, No. 3.17): 0%
percentage of the plants that were killed (BRACHIARIA PLATYPHYLLA; 20 g/ha, 24 DAA, No. 3.16): 0%
percentage of the plants that were killed (BRACHIARIA PLATYPHYLLA; 20 g/ha, 30 DAA, No. 3.17): 0%
percentage of the plants that were killed (DIGITARIA SANGUINALIS [4]; 5 g/ha, 4 DAA, No. 3.6): 20%
percentage of the plants that were killed (DIGITARIA SANGUINALIS [4]; 5 g/ha, 5 DAA, No. 3.14): 25%
percentage of the plants that were killed (DIGITARIA SANGUINALIS [4]; 5 g/ha, 21 DAA, No. 3.5): 50%
percentage of the plants that were killed (DIGITARIA SANGUINALIS [4]; 10 g/ha, 4 DAA, No. 3.6): 90%
percentage of the plants that were killed (DIGITARIA SANGUINALIS [4]; 10 g/ha, 5 DAA, No. 3.14): 50%
percentage of the plants that were killed (DIGITARIA SANGUINALIS [4]; 10 g/ha, 21 DAA, No. 3.5): 80%
percentage of the plants that were killed (DIGITARIA SANGUINALIS [4]; 20 g/ha, 4 DAA, No. 3.6): 98%
percentage of the plants that were killed (DIGITARIA SANGUINALIS [4]; 20 g/ha, 5 DAA, No. 3.14): 99%
percentage of the plants that were killed (DIGITARIA SANGUINALIS [4]; 20 g/ha, 21 DAA, No. 3.5): 93%
percentage of the plants that were killed (CYNODON DACTYLON; 10 g/ha): 0%
percentage of the plants that were killed (CYNODON DACTYLON; 20 g/ha): 0%
percentage of the plants that were killed (CYPERUS ROTUNDUS; 10 g/ha): 40%
percentage of the plants that were killed (CYPERUS ROTUNDUS; 20 g/ha): 75%
percentage of the plants that were killed (DIGITARIA SANGUINALIS [5]; 10 g/ha): 0%
percentage of the plants that were killed (DIGITARIA SANGUINALIS [5]; 20 g/ha): 0%
percentage of the plants that were killed (AMBROSIA ARTEMISIIFOLIA; 20 g/ha, 25 DAA, Trial 4.7): 47%
percentage of the plants that were killed (AMBROSIA ARTEMISIIFOLIA; 20 g/ha, 49 DAA, Trial 4.8): 30%
percentage of the plants that were killed (AMBROSIA ARTEMISIIFOLIA; 40 g/ha, 25 DAA, Trial 4.7): 79%
percentage of the plants that were killed (AMBROSIA ARTEMISIIFOLIA; 40 g/ha, 49 DAA, Trial 4.8): 69%
percentage of the plants that were killed (IPOMOEA SP. [6]; 20 g/ha, 25 DAA, Trial 4.9): 35%
percentage of the plants that were killed (IPOMOEA SP. [6]; 20 g/ha, 49 DAA, Trial 4.10): 20%
percentage of the plants that were killed (IPOMOEA SP. [6]; 40 g/ha, 25 DAA, Trial 4.9): 65%
percentage of the plants that were killed (IPOMOEA SP. [6]; 40 g/ha, 49 DAA, Trial 4.10): 60%
percentage of the plants that were killed (E[…]-GALLI; 20 g/ha): 53%
percentage of the plants that were killed (E[…]-GALLI; 40 g/ha): 55%
percentage of the plants that were killed (AMBROSIA TRIFIDA [7]; 20 g/ha, 8 DAA, Trial 4.16): 75%
percentage of the plants that were killed (AMBROSIA TRIFIDA [7]; 20 g/ha, 42 DAA, Trial 4.15): 23%
percentage of the plants that were killed (AMBROSIA TRIFIDA [7]; 40 g/ha, 8 DAA, Trial 4.16): 95%
percentage of the plants that were killed (AMBROSIA TRIFIDA [7]; 40 g/ha, 42 DAA, Trial 4.15): 38%
percentage of the plants that were killed (C[…]; 20 g/ha, 26 DAA, Trial 4.5): 80%
percentage of the plants that were killed (C[…]; 20 g/ha, 54 DAA, Trial 4.6): 0%
percentage of the plants that were killed (C[…]; 20 g/ha, 56 DAA, Trial 4.11): 0%
percentage of the plants that were killed (C[…]; 40 g/ha, 26 DAA, Trial 4.5): 80%
percentage of the plants that were killed (C[…]; 40 g/ha, 54 DAA, Trial 4.6): 44%
percentage of the plants that were killed (C[…]; 40 g/ha, 56 DAA, Trial 4.11): 13%
percentage of the plants that were killed (XANTHIUM STRUMARIUM; 20 g/ha, 26 DAA, Trial 4.17): 25%
percentage of the plants that were killed (XANTHIUM STRUMARIUM; 20 g/ha, 42 DAA, Trial 4.18): 23%
percentage of the plants that were killed (XANTHIUM STRUMARIUM; 40 g/ha, 26 DAA, Trial 4.17): 73%
percentage of the plants that were killed (XANTHIUM STRUMARIUM; 40 g/ha, 42 DAA, Trial 4.18): 68%
percentage of the plants that were killed (SESBANIA EXALTATA [8]; 20 g/ha): 50%
percentage of the plants that were killed (SESBANIA EXALTATA [8]; 40 g/ha): 25%
percentage of the plants that were killed (POLYGONUM PENSYLVANICUM; 20 g/ha): 0%
percentage of the plants that were killed (POLYGONUM PENSYLVANICUM; 40 g/ha): 13%
